# Columns and labels:
# Conditions in all cases: 37° C., 48 hours (examined up to 72 hours); well color change to purple or red
# S. infantis (CX-4) = experiment: Substance utilization by isolated strains (BioLOG GP2, API 50); assay type: cell-based, Streptococcus infantis
# Protocol: (§1) To analyze substance utilization by the isolated strains (Streptococcus pneumoniae, Streptococcus infantis, and Streptococcus mitis), tests were conducted in the following manner. BioLOG GP2 and API 50 were used in determining the substance utilization, and testing was performed using testing methods provided by Omnilog and Biomeriuse. The culturing temperature and media suitable to corresponding strains were selected, and 5 among cluster colonies incubated for 48 hours were taken and suspended in reagents before use. The inoculation amount was 150 μl. As the suspension, components of kits provided by various manufacturers were used. When the strains are yet to be inoculated, the suspension is in a transparent liquid phase. Inoculated plates and strips were incubated at 37° C. for 48 hours, and then the incubation of up to 72 hours was examined. Wells were in a transparent liquid phase at the time of inoculating, but the colors of the wells changed to purple or red, and the color-changed wells were determined to be positive.
# S. mitis (CX-8) = experiment: as above; assay type: cell-based, Streptococcus mitis
# Protocol: as §1
# S. pneumoniae (CX-2) = assay type: cell-based, Streptococcus pneumoniae
# Protocol: as §1
Molecule,"substance utilization, S. infantis (CX-4) (S. infantis (CX-4))","substance utilization, S. mitis (CX-8) (S. mitis (CX-8))","substance utilization, S. pneumoniae (CX-2) (S. pneumoniae (CX-2))"
"[Cl-].[Na+] [1% NaCl, NaCl]",+,+,+
"CC(O)C(=O)[O-].[Na+] (stereo not shown) [1% Sodium Lactate, Sodium Lactate]",+,+,+
OC[C@H]1O[C@@H](O[C@H]2[C@H](O)[C@@H](O)[C@H](O)O[C@@H]2CO)[C@H](O)[C@@H](O)[C@@H]1O [D-Cellobiose],+,+,+
O=P(O)(O)OC[C@H]1OC(O)(CO)[C@@H](O)[C@@H]1O (stereo partly drawn) [D-Fructose-6-Po4],–,+,–
OC[C@H]1O[C@H](OCC2O[C@@H](O)[C@H](O)[C@@H](O)[C@@H]2O)[C@H](O)[C@@H](O)[C@H]1O (stereo partly drawn) [D-Melibiose],–,–,+
OC[C@H]1O[C@H](OC[C@H]2O[C@H](O[C@]3(CO)O[C@H](CO)[C@@H](O)[C@@H]3O)[C@H](O)[C@@H](O)[C@@H]2O)[C@H](O)[C@@H](O)[C@H]1O [D-Raffinose],–,–,+
OC[C@H]1O[C@H](O[C@H]2[C@H](O)[C@@H](O)[C@H](O)O[C@@H]2CO)[C@H](O)[C@@H](O)[C@@H]1O [D-maltose],+,+,+
O=C1O[C@H]([C@@H](O)CO)[C@@H](O)[C@@H]1O [L-Galactonic Acid Lactone],–,+,–
[Cl-].[Li+] [Lithium Chloride],–,+,–
O=[Te]([O-])[O-].[K+].[K+] [Potassium Tellurite],+,+,+
CO[C@H]1/C=C/O[C@@]2(C)Oc3c(C)c([O-])c4c(O)c(cc(O)c4c3C2=O)NC(=O)/C(C)=C\C=C\[C@H](C)[C@H](O)[C@@H](C)[C@@H](O)[C@@H](C)[C@H](OC(C)=O)[C@@H]1C.[Na+] [Rifamycin SV],+,+,–
OC[C@H]1O[C@H](OC[C@H]2O[C@H](OC[C@H]3O[C@H](O[C@]4(CO)O[C@H](CO)[C@@H](O)[C@@H]4O)[C@H](O)[C@@H](O)[C@@H]3O)[C@H](O)[C@@H](O)[C@H]2O)[C@H](O)[C@@H](O)[C@H]1O [Stachyose],+,+,+
COc1cc(-c2ccc(-n3nc(-c4ccccc4)n[n+]3-c3ccccc3)c(OC)c2)ccc1-n1nc(-c2ccccc2)n[n+]1-c1ccccc1.[Cl-].[Cl-] [Tetrazolium Blue],+,+,–
D-Salicin,–,+,–
D-Turanose,–,–,+
Dextrin,+,+,+
Pectin,+,+,+
Tween 40,+,–,+

# Source: patent publication US11752091B2, “Composition for strengthening skin barrier, moisturizing skin or anti-aging” (COSMAX, INC., priority 2020, dated 2023)
